Structures can show the parent of a compound that is named as a salt. Where two headings read alike, the source gives them in different places.
Columns and labels:
in vitro = conditions: human
TMPRSS2 = target: T1, TMPRSS2 (Homo sapiens, UniProt O15393); experiment: Host protease selectivity test, TMPRSS2; type: biochemical
T1 construct: purchased MedChemExpress, Shanghai, China
Protocol: TMPRSS2 protease at the concentration of 5 nM (MedChemExpress, Shanghai, China) was incubated with compounds in the reaction buffer (50 mM Tris-HCl, 1 mM CaCl2, 0.1% Tween 20, pH 8.0) for 1 h at 37 °C. Then, 45 μM substrate Boc-GIn-Ala-Arg-AMC (NJPeptide, Nanjing, China) was added to initiate the reaction. Fluorescence intensity was detected using a Cytation 5 plate reader at 380 nm (excitation)/460 nm (emission) for 1.5 h.

SARS-CoV-2-S pseudovirus = experiment: microbe, parasite or virus in culture; type: cell-based; conditions: for IC50: Pseudovirus, read-out: IC50, pseudovirus activity inhibition
SARS-CoV 3CL^pro = SARS-CoV 3CL^pro (Severe acute respiratory syndrome coronavirus, UniProt P0C6X7); experiment: biochemical
CTSL = target: T2, CTSL (Homo sapiens, UniProt P07711); experiment: Host protease selectivity test, Cathepsin L; type: biochemical; conditions: 5 and 50 μM
T2 construct: purchased SinoBiological, Beijing, China
Protocol: Cathepsin L (CTSL) (SinoBiological, Beijing, China) at a final concentration of 100 nM in buffer (20 mM sodium acetate, 1 mM EDTA, and 5 mM DTT, pH 5.5) was activated by incubation at 30 °C. Then, the working solution of CTSL was diluted into 300 pM with the reaction buffer and incubated for 30 min. The addition of 5 μM FRET substrate Z-Phe-Arg-AMC (NJPeptide, Nanjing, China) initiated the reaction. The fluorescence signals at 360 nm (excitation)/460 nm (emission) were measured for 20 min with the Cytation 5 plate reader (BioTek, Winooski, VT, USA).

CTRC = target: T3, CTRC (Homo sapiens, UniProt Q99895); experiment: Host protease selectivity test, Chymotrypsin; type: biochemical; conditions: 5 and 50 μM
T3 construct: purchased Novoprotein, Suzhou, China
T3 sequence (Q99895 30-268): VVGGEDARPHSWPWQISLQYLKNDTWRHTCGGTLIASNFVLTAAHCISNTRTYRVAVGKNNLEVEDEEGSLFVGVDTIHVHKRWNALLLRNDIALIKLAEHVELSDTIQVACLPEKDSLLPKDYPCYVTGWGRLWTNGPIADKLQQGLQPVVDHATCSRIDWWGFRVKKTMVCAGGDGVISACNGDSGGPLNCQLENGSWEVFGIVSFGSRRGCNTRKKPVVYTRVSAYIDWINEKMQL
Protocol: Chymotrypsin (CTRC) (Novoprotein, Suzhou, China) at a final concentration of 5 μg/mL was incubated in a buffer solution containing 50 mM Tris, 10 mM CaCl2, and 150 mM NaCl at pH 7.5 for a period of 30 min. Subsequently, trypsin was added to the mixture at the same concentration (5 μg/mL) and incubated for an additional 60 min at 37 °C. Following this, the reaction was initiated by adding 100 µM of the Succinyl-Ala-Ala-Pro-Phe-p-nitroanilide substrate (NJPeptide, Nanjing, China), and the mixture was incubated for another 60 min at 37 °C. Finally, the activity of CTRC was quantified by measuring the absorbance at 405 nm using a Cytation 5 plate reader (BioTek, Winooski, VT, USA).

CTSB = target: T4, CTSB (Homo sapiens, UniProt P07858); experiment: Host protease selectivity test, Cathepsin B; type: biochemical; conditions: 5 and 50 μM
T4 construct: purchased SinoBiological, Beijing, China
Protocol: Target selectivity tests toward host proteases were conducted based on our previous method. Cathepsin B (CTSB) (SinoBiological, Beijing, China) at a final concentration of 100 nM was prepared in buffer with 20 mM sodium acetate, 1 mM EDTA, and 2 mM DTT (pH 5.5) and incubated for 30 min at 30 °C. Next, the working solution of CTSB was diluted into 500 pM with the reaction buffer (100 mM MES pH 6.0, 1 mM EDTA, 2 mM DTT, and 0.01% Tween-20) and kept for 30 min. Then, the FRET substrate Z-Phe-Arg-AMC (NJPeptide, Nanjing, China) at 5 μM was added to activate the enzymatic reaction. The fluorescence signals were measured using a Cytation 5 plate reader (BioTek, Winooski, VT, USA) at 360 nm (excitation)/460 nm (emission) for 20 min.

[1] = Cell viability assay (CCK-8) on Vero-E6 cells; conditions: African green monkey
MERS-CoV 3CL^pro = MERS-CoV 3CL^pro (Middle East respiratory syndrome-related coronavirus, UniProt K9N7C7); experiment: biochemical
SARS-CoV-2 3CL^pro [2] = target: T5, SARS-CoV-2 3CL^pro (Severe acute respiratory syndrome coronavirus 2, UniProt P0DTD1); experiment: biochemical
SARS-CoV-2 3CL^pro [3] = target: T5, SARS-CoV-2 3CL^pro; conditions: cited from earlier work
SARS-CoV-2 3CL^pro [4] = target: T5, SARS-CoV-2 3CL^pro; conditions: cited from earlier work; remark: listed apart in the source
[5] = target: SARS-CoV-2 S-RBD/ACE2 interaction (Severe acute respiratory syndrome coronavirus 2, UniProt P0DTC2); type: cell-based
[6] = system: SARS-CoV-2-S pseudovirus Omicron; experiment: microbe, parasite or virus in culture; type: cell-based
SARS-CoV-2 3CL^pro [7] = target: T5, SARS-CoV-2 3CL^pro
SARS-CoV-2 S-RBD = SARS-CoV-2 S-RBD (Severe acute respiratory syndrome coronavirus 2, UniProt P0DTC2); experiment: biochemical; type: binding
[8] = system: SARS-CoV-2-S pseudovirus Delta; experiment: microbe, parasite or virus in culture; type: cell-based
SARS-CoV-2 3CL^pro [9] = target: T5, SARS-CoV-2 3CL^pro; type: biochemical
human ACE2 = human ACE2 (Homo sapiens, UniProt Q9BYF1); experiment: SPR binding to immobilized ACE2
Protocol: ACE2 and S-RBD were separately immobilized onto a CM5 chip via amine coupling in sodium acetate buffer (pH 4.0 for ACE2 and pH 5.5 for S-RBD) at a flow rate of 10 μL/min. After the chip surface was activated with NHS and EDC, ACE2 and S-RBD were injected at concentrations of 20 μg/mL and 30 μg/mL, respectively, and the surface was blocked using ethanolamine. […] All measurements were performed in PBS buffer (0.05% Tween-20, 5% DMSO, pH 7.4) at 25 °C, with corrections applied to address refractive index shifts and data drift. The binding affinities were quantified by fitting the interaction data to a Langmuir 1:1 binding model using Biacore Evaluation software.

[10] = parameters: method as in doi:10.1177/009286150103500134; conditions: cited from earlier work
[11] = system: SARS-CoV-2-S pseudovirus Gamma; experiment: microbe, parasite or virus in culture; type: cell-based

T1 sequence (O15393 whole entry): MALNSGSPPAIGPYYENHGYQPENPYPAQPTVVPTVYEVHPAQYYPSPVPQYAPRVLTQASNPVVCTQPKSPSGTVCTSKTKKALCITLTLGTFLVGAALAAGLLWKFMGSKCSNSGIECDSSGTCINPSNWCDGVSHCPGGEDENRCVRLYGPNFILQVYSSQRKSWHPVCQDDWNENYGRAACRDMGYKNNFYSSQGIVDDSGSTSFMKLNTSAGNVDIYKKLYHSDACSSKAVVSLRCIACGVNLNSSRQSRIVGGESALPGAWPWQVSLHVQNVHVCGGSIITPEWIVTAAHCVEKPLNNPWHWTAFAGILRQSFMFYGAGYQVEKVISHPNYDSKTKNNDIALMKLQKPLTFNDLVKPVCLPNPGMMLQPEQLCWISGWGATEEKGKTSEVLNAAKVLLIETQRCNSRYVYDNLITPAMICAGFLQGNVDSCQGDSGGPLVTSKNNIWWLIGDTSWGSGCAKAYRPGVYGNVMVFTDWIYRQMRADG
Chain of human ACE2 (Q9BYF1 18-805): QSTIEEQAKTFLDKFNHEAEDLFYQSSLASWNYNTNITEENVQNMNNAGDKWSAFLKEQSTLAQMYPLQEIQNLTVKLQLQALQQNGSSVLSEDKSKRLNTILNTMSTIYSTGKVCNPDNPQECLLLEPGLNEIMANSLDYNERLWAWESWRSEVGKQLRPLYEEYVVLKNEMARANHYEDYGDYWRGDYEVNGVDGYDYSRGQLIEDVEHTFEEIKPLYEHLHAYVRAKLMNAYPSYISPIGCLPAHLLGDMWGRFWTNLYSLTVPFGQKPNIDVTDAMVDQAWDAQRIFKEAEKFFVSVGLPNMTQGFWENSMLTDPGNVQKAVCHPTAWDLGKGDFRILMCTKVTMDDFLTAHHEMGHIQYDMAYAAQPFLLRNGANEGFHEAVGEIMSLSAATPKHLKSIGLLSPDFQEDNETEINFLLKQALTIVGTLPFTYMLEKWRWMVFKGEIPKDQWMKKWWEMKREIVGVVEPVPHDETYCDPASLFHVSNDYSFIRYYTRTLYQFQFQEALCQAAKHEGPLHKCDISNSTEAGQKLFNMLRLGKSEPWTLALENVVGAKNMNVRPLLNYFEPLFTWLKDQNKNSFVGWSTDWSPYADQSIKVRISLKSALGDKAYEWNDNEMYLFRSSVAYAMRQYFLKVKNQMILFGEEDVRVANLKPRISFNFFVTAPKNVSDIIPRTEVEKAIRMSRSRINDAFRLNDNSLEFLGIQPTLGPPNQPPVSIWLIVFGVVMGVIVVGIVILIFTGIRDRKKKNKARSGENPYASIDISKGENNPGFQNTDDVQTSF
T2 sequence (P07711 114-333): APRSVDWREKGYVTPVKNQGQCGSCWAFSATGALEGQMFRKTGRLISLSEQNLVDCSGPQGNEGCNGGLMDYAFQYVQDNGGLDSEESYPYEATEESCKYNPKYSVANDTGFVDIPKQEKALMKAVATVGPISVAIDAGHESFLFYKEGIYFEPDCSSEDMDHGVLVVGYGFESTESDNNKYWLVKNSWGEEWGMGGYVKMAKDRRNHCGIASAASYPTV
Chain of MERS-CoV 3CL^pro (K9N7C7 3248-3553 limits assumed): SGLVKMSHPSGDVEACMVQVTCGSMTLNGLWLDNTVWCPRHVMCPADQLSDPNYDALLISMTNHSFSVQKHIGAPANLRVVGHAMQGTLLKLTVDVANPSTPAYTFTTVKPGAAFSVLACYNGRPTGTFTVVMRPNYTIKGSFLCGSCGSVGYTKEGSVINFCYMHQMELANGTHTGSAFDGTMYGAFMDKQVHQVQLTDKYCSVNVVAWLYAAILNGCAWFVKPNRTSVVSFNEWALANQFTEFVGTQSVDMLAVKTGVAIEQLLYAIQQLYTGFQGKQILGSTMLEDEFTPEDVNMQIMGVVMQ

In the case of `NC(CO)C(=O)NNCc1ccc(O)c(O)c1O` (centres unmarked) [Benserazide hydrochloride], the CC50 (in vitro) is reported as over 200 µM, the “inhibition of TMPRSS2” value (TMPRSS2) is reported as “neither compound significantly inhibited” and the “inhibition of pseudovirus entry into host cells” value (SARS-CoV-2-S pseudovirus) is reported as “lacked the capacity to inhibit pseudovirus entry into host cells”. The IC50 (SARS-CoV-2-S pseudovirus) was over 200 µM, the IC50 (SARS-CoV 3CL^pro) was 3.04 ± 0.4 µM and the “inhibition of CTSL” value (CTSL) was “neither compound significantly inhibited”. For the same molecule, the “inhibitory activity against CTRC” value (CTRC) was “did not”, the “inhibition of CTSB” value (CTSB) was “neither compound significantly inhibited” and the CC50 at 24 h [1] was over 100 µM. The IC50 (MERS-CoV 3CL^pro) was 8.81 ± 0.34 µM.

Molecule `Oc1cc(O)c2c(c1)O[C@H](c1ccc(O)c(O)c1)[C@H](O)C2` [Epicatechin] has an IC50 (SARS-CoV-2 3CL^pro [2]) of 3.3 µM.

For `O=c1cc(-c2ccc(O)cc2)oc2cc(O)cc(O)c12` [Apigenin], the IC50 (SARS-CoV-2 3CL^pro [3]) is listed as 84.9 µM.

In the case of `C/C=C1/[C@H](O[C@@H]2O[C@H](CO)[C@@H](O)[C@H](O)[C@H]2O)OC=C(C(=O)OC)[C@H]1CC(=O)OCCc1ccc(O)c(O)c1` [Oleuropein], the IC50 (SARS-CoV-2 3CL^pro [4]) is given as 3.5 µM.

In the case of `COC(=O)[C@@H](Cc1ccc(O)c(O)c1)OC(=O)/C=C/c1ccc(O)c(O)c1` [Methyl rosmarinate], the IC50 (SARS-CoV-2 3CL^pro [4]) is given as 2.5 µM.

Work on `COc1cc(-c2oc3cc(O)cc(O)c3c(=O)c2O[C@@H]2O[C@H](CO[C@@H]3O[C@@H](C)[C@H](O)[C@@H](O)[C@H]3O)[C@@H](O)[C@H](O)[C@H]2O)cc(O)c1O` [Laricitrin 3-rutinoside] yielded an IC50 (SARS-CoV-2 3CL^pro [2]) of 3.82 µM.

In the case of `O=c1cc(-c2ccc(O)c(O)c2)oc2cc(O)cc(O)c12` [luteolin], the IC50 (SARS-CoV-2 3CL^pro [3]) is listed as 74.9 µM.

For `C[C@@H]1O[C@@H](OC[C@H]2O[C@@H](Oc3c(-c4cc(O)c(O)c(O)c4)oc4cc(O)cc(O)c4c3=O)[C@H](O)[C@@H](O)[C@@H]2O)[C@H](O)[C@H](O)[C@H]1O` [Myricetin-3-O-rutinoside], the IC50 (SARS-CoV-2 3CL^pro [2]) was 0.85 µM.

With `O=C(c1cc(O)c(O)c(O)c1)c1ccc(O)c(O)c1O` [Exifone] the “S-RBD binding signal on Vero-E6 cells” value [5] was “marked reduction in the S-RBD binding signal”, the IC50 [6] was 55.1 ± 6.15 µM and the TDI effect (SARS-CoV-2 3CL^pro [7]) was “did not exhibit a significant TDI effect”. For the same molecule, the CC50 (in vitro) was over 200 µM, the Kd (SARS-CoV-2 S-RBD) was 0.818 µM and the “inhibition of TMPRSS2” value (TMPRSS2) was “neither compound significantly inhibited”. It also gave an IC50 (SARS-CoV-2-S pseudovirus) of 76.5 ± 32.6 µM, an IC50 [8] of 150 ± 5.06 µM and an IC50 (SARS-CoV 3CL^pro) of 3.36 ± 0.08 µM. For the same molecule, the “inhibition of CTSL” value (CTSL) was “neither compound significantly inhibited”, the “inhibitory activity against CTRC” value (CTRC) was “significant inhibitory activity” and the type of inhibition (SARS-CoV-2 3CL^pro [9]) was “non-competitive inhibition with an allosteric mechanism”. For the same molecule, the Kd (human ACE2) was 1.93 µM, the kd (human ACE2; SPR, immobilized ACE2) was 0.00045 s⁻¹ and the “inhibition of CTSB” value (CTSB) was “neither compound significantly inhibited”. For the same molecule, the CC50 at 24 h ([1]; Vero-E6 cells) was over 100 µM, the IC50 (MERS-CoV 3CL^pro) was 13.9 ± 0.38 µM and the “reason for withdrawal from the market” value [10] was “hepatotoxicity”. The inhibition at 5 µM (SARS-CoV-2 3CL^pro [2]; read-out: inhibition of SARS-CoV-2 3CLpro activity) was over 50% and the IC50 [11] was 159 ± 4.95 µM.

Molecule `O=C(/C=C/c1ccc(O)cc1)c1ccc(O)cc1O` [Isoliquiritigenin] has an IC50 (SARS-CoV-2 3CL^pro [2]) of 73.9 µM.
